# Molecular target: Full length SHP2 protein (Recombinant Human SHP-2) (Homo sapiens (Human), UniProt Q06124)
# Test: SHP2 biochemical assay (DiFMUP substrate, activating peptide IRSI_2pY)
# Details: SHP-2 biochemical assay IC50 (μM), activating peptide IRSI_2pY 140 nM, DiFMUP, 60 min
# Method: The inhibition of SHP2 by compounds of the invention was monitored using the surrogate substrate DiFMUP after protein activation by a peptide bearing two appropriately spaced phosphotyrosine. […] The generation of the DiFMU product by activated SHP2 was monitored through Fluorescence measurement with a PerkinElmer Envision reader. The inhibitor dose response curves were analyzed with Genedata Screener.
# Sequence of Full length SHP2 protein (Recombinant Human SHP-2) (Q06124 2-593): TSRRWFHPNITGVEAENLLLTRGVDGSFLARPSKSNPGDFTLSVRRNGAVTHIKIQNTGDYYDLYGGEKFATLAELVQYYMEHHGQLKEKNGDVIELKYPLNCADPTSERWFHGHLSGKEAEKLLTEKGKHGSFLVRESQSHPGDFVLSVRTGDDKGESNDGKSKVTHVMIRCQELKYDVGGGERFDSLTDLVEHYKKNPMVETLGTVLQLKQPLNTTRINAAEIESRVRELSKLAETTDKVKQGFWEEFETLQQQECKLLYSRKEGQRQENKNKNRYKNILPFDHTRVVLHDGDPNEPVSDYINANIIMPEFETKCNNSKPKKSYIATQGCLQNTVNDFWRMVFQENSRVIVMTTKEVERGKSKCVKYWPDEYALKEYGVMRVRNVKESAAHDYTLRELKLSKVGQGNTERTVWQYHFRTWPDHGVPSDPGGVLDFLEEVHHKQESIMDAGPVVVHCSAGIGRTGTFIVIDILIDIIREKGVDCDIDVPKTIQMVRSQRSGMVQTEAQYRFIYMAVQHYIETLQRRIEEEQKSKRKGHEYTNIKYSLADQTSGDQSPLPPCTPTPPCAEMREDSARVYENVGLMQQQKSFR
row,Compound,IC50 [µM]
1,"Cc1c(N2CCC3(CC2)Cc2ccccc2[C@@H]3N)nc(C)n(-c2cccc(Cl)c2Cl)c1=O (atropisomer, axis not shown) [Compound 74d, (3P)-6-[(1R)-1-amino-1,3-dihydrospiro[indene-2,4′-piperidin]-1′-yl]-3-(2,3-dichlorophenyl)-2,5-dimethyl-3,4-dihydropyrimidin-4-one]",> 10
2,"Cc1nc(C2=CC[C@@](C)(N)CC2)cc(=O)n1-c1cccc(Cl)c1Cl (racemic) [Compound 6a, (+/−)-(3M)-6-[(4S)-4-amino-4-methylcyclohex-1-en-1-yl]-3-(2,3-dichlorophenyl)-2-methyl-3,4-dihydropyrimidin-4-one]",19
3,"Cc1nc(C2=CC[C@@](C)(N)CC2)cc(=O)n1-c1cccc(Cl)c1Cl (racemic) [Compound 6b, (+/−)-(3P)-6-[(4S)-4-amino-4-methylcyclohex-1-en-1-yl]-3-(2,3-dichlorophenyl)-2-methyl-3,4-dihydropyrimidin-4-one]",> 10
4,"Cc1nc(N2C[C@@H]3CCC[C@]3(CN)C2)c(C(F)(F)F)c(=O)n1-c1cccc(Cl)c1Cl (racemic) [Compound 25, (+/−)-6-[(3aS,6aR)-3a-(aminomethyl)-octahydrocyclopenta[c]pyrrol-2-yl]-3-(2,3-dichlorophenyl)-2-methyl-5-(trifluoromethyl)-3,4-dihydropyrimidin-4-one]",14
5,"Cc1nc(N2CC[C@@H](N)[C@@H](O)C2)cc(=O)n1-c1cccc(Cl)c1Cl (racemic) [Compound 30, (+/−)-6-[(3S,4R)-4-amino-3-hydroxypiperidin-1-yl]-3-(2,3-dichlorophenyl)-2-methyl-3,4-dihydropyrimidin-4-one]",13
6,"Cc1c(N2C[C@H]3COC[C@@]3(CN)C2)nc(C)n(-c2cccc(Cl)c2Cl)c1=O (racemic) [Compound 34, (+/−)-6-[(3aS,6aS)-3a-(aminomethyl)-hexahydro-1H-furo[3,4-c]pyrrol-5-yl]-3-(2,3-dichlorophenyl)-2,5-dimethyl-3,4-dihydropyrimidin-4-one]",1.7
7,"Cc1nc(N2CCC(C)([C@H](O)CN)CC2)cc(=O)n1-c1cccc(Cl)c1Cl (racemic) [Compound 57a, (+/−)-(3M)-6-{4-[(1S)-2-amino-1-hydroxyethyl]-4-methylpiperidin-1-yl}-3-(2,3-dichlorophenyl)-2-methyl-3,4-dihydropyrimidin-4-one]",> 10
8,"Cc1nc(N2CCC(C)([C@H](O)CN)CC2)cc(=O)n1-c1cccc(Cl)c1Cl (racemic) [Compound 57b, (+/−)-(3P)-6-{4-[(1S)-2-amino-1-hydroxyethyl]-4-methylpiperidin-1-yl}-3-(2,3-dichlorophenyl)-2-methyl-3,4-dihydropyrimidin-4-one]",3
9,"Cc1nc(N2CCC[C@](N)(CC(F)F)CC2)cc(=O)n1-c1cccc(Cl)c1Cl (racemic) [Compound 58a, (+/−)-(3M)-6-4-[(1R)-4-amino-4-(2,2-difluoroethyl)-azepan-1-yl]-3-(2,3-dichlorophenyl)-2-methyl-3,4-dihydropyrimidin-4-one]",> 10
10,"Cc1nc(N2CCC[C@](N)(CC(F)F)CC2)cc(=O)n1-c1cccc(Cl)c1Cl (racemic) [Compound 58b, (+/−)-(3P)-6-4-[(1R)-4-amino-4-(2,2-difluoroethyl)-azepan-1-yl]-3-(2,3-dichlorophenyl)-2-methyl-3,4-dihydropyrimidin-4-one]",1.3
11,"Cc1nc(N2CCC(C)(N3CC[C@H](O)C3)CC2)cc(=O)n1-c1cccc(Cl)c1Cl (racemic) [Compound 72b, (+/−)-(3M)-3-(2,3-dichlorophenyl)-6-{4-[(3R)-3-hydroxy-pyrrolidin-1-yl]-4-methylpiperidin-1-yl}-2-methyl-3,4-dihydropyrimidin-4-one]",6.4
12,"Cc1nc(N2CCC3(CC2)CO[C@@H](C)[C@H]3N)cc(=O)n1-c1c(F)ccc(Cl)c1Cl (single isomer, unassigned) [Compound 32b]",1.9
13,"Cc1nc(N2CCC3(CC2)CO[C@@H](C)[C@H]3N)nc(=O)n1-c1cccc(Cl)c1Cl (single isomer, unassigned) [Compound 37b]",> 10
14,"[2H]C([2H])([2H])c1c(N2CCC3(CC2)CO[C@@H](C)[C@H]3N)nc(C)n(-c2cccc(Cl)c2Cl)c1=O (single isomer, unassigned) [Compound 63a]",6
15,"Cc1nc(N(C)[C@H]2CC[C@](C)(N)CC2)cc(=O)n1-c1cccc(Cl)c1Cl (single isomer, unassigned) [Compound 71a, 3-(2,3-dichlorophenyl)-2-methyl-6-{methyl[(trans)-4-amino-4-methylcyclohexyl]amino}-3,4-dihydropyrimidin-4-one]",> 50
16,"Cc1nc(N(C)[C@H]2CC[C@@](C)(N)CC2)cc(=O)n1-c1cccc(Cl)c1Cl (single isomer, unassigned) [Compound 71b, 3-(2,3-dichlorophenyl)-2-methyl-6-{methyl[(cis)-4-amino-4-methylcyclohexyl]amino}-3,4-dihydropyrimidin-4-one]",20
17,"Cc1nc(N2CCC(C)(N3CC[C@H](O)C3)CC2)cc(=O)n1-c1cccc(Cl)c1Cl (single isomer, unassigned) [Compound 72a]",> 10
18,"COc1c(N2CCC3(CC2)CO[C@@H](C)[C@H]3N)nc(C)n(-c2cccc(Cl)c2Cl)c1=O (single isomer, unassigned) [Compound 73b]",0.91
19,"Cc1c(N2CCC3(CC2)Oc2ccccc2[C@H]3N)nc(C)n(-c2cccc(Cl)c2Cl)c1=O (single isomer, unassigned) [Compound 81a]",0.47

# Same assay, conditions: activating peptide IRSI_2pY 140 nM, DiFMUP, 60 min; read-out: SHP-2 biochemical assay IC50
row,Compound,IC50 [µM]
1,"Cc1nc(N2CCC3(CC2)CO[C@@H](C)[C@H]3N)c(C(C)C)c(=O)n1-c1cccc(Cl)c1Cl (atropisomer, axis not shown) [Compound 49a, (3P)-6-[(3S,4S)-4-amino-3-methyl-2-oxa-8-azaspiro[4.5]decan-8-yl]-3-(2,3-dichlorophenyl)-2-methyl-5-(propan-2-yl)-3,4-dihydropyrimidin-4-one]",> 10
2,"Cc1nc(N2C[C@H]3COCC[C@@]3(CN)C2)cc(=O)n1-c1cccc(Cl)c1Cl (racemic) [Compound 19, (+/−)-6-[(3aS,7aR)-7a-(aminomethyl)-octahydropyrano[3,4-c]pyrrol-2-yl]-3-(2,3-dichlorophenyl)-2-methyl-3,4-dihydropyrimidin-4-one]",4
3,"Cc1c(N2CCC3(CC2)CO[C@@H](C)[C@H]3N)nc(C)n(-c2cccc(Cl)c2Cl)c1=O (single isomer, unassigned) [Compound 23a]",3.4
4,"Cc1nc(N2CCC3(CC2)CO[C@@H](C)[C@H]3N)cc(=O)n1-c1c(F)ccc(Cl)c1Cl (single isomer, unassigned) [Compound 32a]",> 10
5,"Cc1nc(N2CCC(C)(CN)CC2)cc(=O)n1-c1c(F)ccc(Cl)c1Cl (single isomer, unassigned) [Compound 33a, (3P)-6-[4-(aminomethyl)-4-methylpiperidin-1-yl]-3-(2,3-dichloro-6-fluorophenyl)-2-methyl-3,4-dihydropyrimidin-4-one]",> 10
6,"Cc1nc(N2CCC(C)(CN)CC2)cc(=O)n1-c1c(F)ccc(Cl)c1Cl (single isomer, unassigned) [Compound 33b, (3M)-6-[4-(aminomethyl)-4-methylpiperidin-1-yl]-3-(2,3-dichloro-6-fluorophenyl)-2-methyl-3,4-dihydropyrimidin-4-one]",5.7
7,"Cc1nc(N2CCC3(CCC[C@H]3N)CC2)cc(=O)n1-c1cccc(Cl)c1Cl (single isomer, unassigned) [Compound 62a]",> 10
8,"COc1c(N2CCC3(CC2)CO[C@@H](C)[C@H]3N)nc(C)n(-c2cccc(Cl)c2Cl)c1=O (single isomer, unassigned) [Compound 73a]",> 10
9,"Cc1c(N2CCC3(CCC[C@@H]3N)CC2)nc(N)n(-c2cccc(Cl)c2Cl)c1=O (single isomer, unassigned) [Compound 78a]",> 50
10,"Cc1c(N2CCC3(CCC[C@H]3N)CC2)nc(N)n(-c2cccc(Cl)c2Cl)c1=O (single isomer, unassigned) [Compound 78b]",> 10
11,"Cc1c(N2CCC3(CC2)Oc2cnccc2C3N)nc(C)n(-c2cccc(Cl)c2Cl)c1=O (single isomer, unassigned) [Compound 80c]",0.005
12,"Cc1c(N2CCC3(CC2)Oc2cnccc2[C@@H]3N)nc(C)n(-c2cccc(Cl)c2Cl)c1=O (single isomer, unassigned) [Compound 80d]",1.4
13,"Cc1nc(N2CCC3(CC2)Cc2ccccc2[C@H]3N)cc(=O)n1-c1cccc(Cl)c1Cl (single isomer, unassigned) [Compound 119a]",0.27
14,"CSc1nc(N2CCC(C)(N)CC2)cc(=O)n1-c1cccc(Cl)c1Cl [Compound 1, 6-(4-amino-4-methylpiperidin-1-yl)-3-(2,3-dichlorophenyl)-2-(methylsulfanyl)-3,4-dihydropyrimidin-4-one]",8.6
15,"Cc1nc(N2CCC(C)(CN)CC2)cc(=O)n1-c1cccc(Cl)c1Cl [Compound 4, 6-[4-(aminomethyl)-4-methylpiperidin-1-yl]-3-(2,3-dichlorophenyl)-2-methyl-3,4-dihydropyrimidin-4-one]",0.26
16,"Cc1nc(N2CCC3(CC2)CO[C@@H](C)[C@H]3N)cc(=O)n1-c1ccccc1 [Compound 7, 6-[(3S,4S)-4-amino-3-methyl-2-oxa-8-azaspiro[4.5]decan-8-yl]-2-methyl-3-phenyl-3,4-dihydropyrimidin-4-one]",4.8
17,"Nc1nc(N2CCC3(CC2)CC(F)(F)C[C@H]3N)cc(=O)n1-c1cccc(Cl)c1Cl [Compound 8, 2-amino-6-[(1R)-1-amino-3,3-difluoro-8-azaspiro[4.5]decan-8-yl]-3-(2,3-dichlorophenyl)-3,4-dihydropyrimidin-4-one]",1.1
18,"Cc1nc(C2=CCC(C)(CN)CC2)cc(=O)n1-c1cccc(Cl)c1Cl (stereo not shown) [Compound 9, 6-[4-(aminomethyl)-4-methylcyclohex-1-en-1-yl]-3-(2,3-dichlorophenyl)-2-methyl-3,4-dihydropyrimidin-4-one]",16

# From patent US11001561B2, “Pyrimidinone derivatives as SHP2 antagonists” (MERCK PATENT GMBH, priority 2019, dated 2021)
